Measurements taken from PubChem BioAssay AID449745 (Broad Institute, 2010).
Inconclusive results are not listed. The source made the active and inactive calls. The rule behind the calls is not given here.

biological target: Zinc finger protein mex-5 (Caenorhabditis elegans) (UniProt Q9XUB2); experiment: MEX-5 RNA-binding inhibition confirmation – biochemical, C. elegans, fluorescence polarization, dose retest (AID 449745); details: Mex-5 / TCR-2 RNA binding;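 note: potency is for blocking Mex-5 binding to labeled TCR2 RNA like unlabeled competitor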
Sequence (Q9XUB2 whole entry, looked up): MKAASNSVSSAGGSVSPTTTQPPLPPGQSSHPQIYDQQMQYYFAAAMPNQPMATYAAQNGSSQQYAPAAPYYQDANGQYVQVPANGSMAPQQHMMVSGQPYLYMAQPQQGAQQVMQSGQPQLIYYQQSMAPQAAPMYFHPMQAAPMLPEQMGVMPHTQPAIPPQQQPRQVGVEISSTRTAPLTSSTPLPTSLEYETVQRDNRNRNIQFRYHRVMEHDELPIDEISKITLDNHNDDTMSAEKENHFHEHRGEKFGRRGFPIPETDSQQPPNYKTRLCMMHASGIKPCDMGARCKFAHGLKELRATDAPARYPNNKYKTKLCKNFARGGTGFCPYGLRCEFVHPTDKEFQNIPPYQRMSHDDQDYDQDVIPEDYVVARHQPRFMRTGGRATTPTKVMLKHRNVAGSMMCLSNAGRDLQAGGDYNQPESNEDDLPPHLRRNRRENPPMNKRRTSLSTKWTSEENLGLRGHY

| SMILES | AC50 |
| --- | --- |
| COc1ccc(N(C(=O)CCl)C(C)(C(=O)Nc2c(C)cccc2C)c2ccccn2)cc1 (stereo unspecified) | > 38 µM (inactive) |
| Cc1ccc([C@@H]2C3COCC=C3C(C#N)=C(N)C2(C#N)C#N)o1 (stereo partly specified) | > 38 µM (inactive) |
| O=C(c1nc2ccc(Cl)cn2c1CN1CCCC1)N1CCc2ccccc2C1 | 23.7 µM |
| COc1cc(C=C2C(=O)c3ccccc3C2=O)cc(OC)c1OC | 28.4 µM |
| Cc1c(C(=O)NNC(=S)Nc2ccc(S(N)(=O)=O)cc2)oc2ccccc12 | 12.1 µM |
| COC(=O)COc1ccc(C2Nc3c(Cl)ccc(C(=O)O)c3C3C=CCC32)cc1 (stereo unspecified) | > 38 µM (inactive) |
| O=C(O)CCCC(=O)NNc1nc(-c2ccccc2)c2cc(Cl)ccc2n1 | 13.3 µM |
| O=C1CCNc2ccc(-c3ccccc3)cc21 | 4.42 µM |
| O=C1c2ccccc2C(=O)N1/N=C/c1ccc(O)c(O)c1O | 0.798 µM |
| Cc1ccc(C)n1C(Cc1ccccc1)C(=O)O (stereo unspecified) | 8.84 µM |
| COc1ccc(OC)c(N2C(=O)NC(=O)/C(=C/c3ccc([N+](=O)[O-])s3)C2=O)c1 | 22 µM |
| O=C(c1nc2ccc(Cl)cn2c1CN1CCC[C@H]1CO)N1CCCCCCC1 | 27.3 µM |
| Cc1cccc(CS(=O)(=O)c2nnc([C@H](Cc3ccccc3)NC(=O)OC(C)(C)C)o2)c1 | > 38 µM (inactive) |
| COc1ncnc2c1N=C1CC(C)(C)CC(N)=C1S2 | 19.6 µM |
| Nc1ccc2nc(CN3CCOCC3)[nH]c2c1 | 34.4 µM |
| O=C(NC(=S)NNS(=O)(=O)c1ccccc1)c1ccc([N+](=O)[O-])cc1 | 34.2 µM |
| CCN(CC)c1ccc2cc(S(=O)(=O)c3ccc(C)cc3)c(=O)oc2c1 | 11.5 µM |
| Cc1cccc(C)c1NC(=O)/C(C#N)=C/c1ccc(-c2ccc(C(=O)O)cc2)o1 | > 38 µM (inactive) |
| Cc1cc(O)c(-c2cc(O)c(C)cc2O)cc1O | 6.21 µM |
| CC(=O)Nc1ccc(S(=O)(=O)NCC(=O)NNC(=O)c2csc(N3CCOCC3)n2)cc1 | 12.7 µM |
| Nc1ccc2nc3c(=O)n(CCc4ccccc4)c(=O)[nH]c3nc2c1 | 3.43 µM |
| N#C/C(=C\c1cccc([N+](=O)[O-])c1)c1nnc2n1CCCCC2 | > 38 µM (inactive) |
| CCc1nnc(NC(=O)CCN2C(=O)/C(=C/c3cc(OC)c(OC)c(OC)c3)SC2=S)s1 | > 38 µM (inactive) |
| CSc1nc(N)c(N=Nc2ccc([As](=O)(O)O)cc2)c(=O)[nH]1 | 17.7 µM |
| CC(C)C[C@H](NC(=O)C1CC(=O)N(c2ccc3c(c2)OCO3)C1)C(=O)NC1CCCC1 (stereo partly specified) | 29.2 µM |
| Cc1cccc(-n2c(O)c(/C=N/Nc3nc4c(c(=O)n(C)c(=O)n4C)n3C)c(=O)[nH]c2=S)c1 | 7.45 µM |

| SMILES | AC50 |
| --- | --- |
| COCC(C)N1CCC(Oc2cccc(C(=O)NCCc3ccccc3)c2)CC1 (stereo unspecified) | > 38 µM (inactive) |
| O=C1c2cccc3cccc(c23)C(=O)C1(O)O | 15.6 µM |
| OC(CNC1CCCC1)COc1ccccc1Br (stereo unspecified) | > 38 µM (inactive) |
| O=c1[nH]c(=S)n(-c2ccc(Cl)cc2)c(O)c1C=Nc1ccc(N2CCOCC2)cc1 | 30 µM |
| Cc1cccc(C2Nc3ccccc3C(=O)N2NC(=O)c2ccc([N+](=O)[O-])cc2)n1 (stereo unspecified) | 8.47 µM |
| CC(=Nc1ccc(C)cc1C)c1sc2ccccc2c1O | 37.2 µM |
| N=c1c(S(=O)(=O)c2ccc(Cl)cc2)cc2c(=O)n3ccccc3nc2n1CC1CCCO1 (stereo unspecified) | > 38 µM (inactive) |
| Cc1cc(C)c2c(c1)NC(C(=O)O)C1CC=CC21 (stereo unspecified) | 13.3 µM |
| Cc1ccc(/C=C2/NC(=O)N(Cc3ccccc3)C2=O)s1 | > 38 µM (inactive) |
| NS(=O)(=O)c1ccc(-c2ccc(C=C3C(=O)NC(=S)NC3=O)o2)cc1 | 8.11 µM |
| CC1=C(C#N)c2nc(N)c(C#N)c(C)c2/C1=C\c1ccc(-c2ccccc2C(=O)O)o1 | 17.9 µM |
| CCOC(=O)C(C(=O)OCC)c1cc(Br)c2noc3c2c1C(=O)c1ccccc1-3 | < 0.3 µM |
| COC/C=C/C1=CC2=CC(=O)C(C)(OC(=O)c3cnc4ccccc4n3)C(=O)C2=CO1 (stereo unspecified) | 17.4 µM |
| Cc1cc[n+](-c2[nH]c(=O)sc2/C=N/NC([S-])=Nc2ccccc2)cc1 | 4.83 µM |
| CCOc1ccc(-c2c(C#N)c(N)nc3sc(C(=O)c4ccccc4)c(N)c23)cc1 | 35.5 µM |
| CC(C(=O)Nc1ccc(C(=O)O)c(O)c1)N1C(=O)/C(=C\c2ccco2)SC1=S (stereo unspecified) | 19 µM |
| O=C1NC(=O)/C(=C\c2ccc(O)cc2O)S1 | 11.5 µM |
| O=Cc1ccc2ccc3cccnc3c2n1 | 30.2 µM |
| COc1ccc(N=C2S/C(=C\c3cc(C)n(C)c3C)C(=O)N2C)cc1 | > 38 µM (inactive) |
| CCCCCC#CCC#CCC#CCC#CCCCC(=O)O | 6.71 µM |
| COc1ccc(OC)c(N2C(=O)NC(=O)/C(=C\c3ccc([N+](=O)[O-])s3)C2=O)c1 | 16.1 µM |
| O=C(CCN1C(=O)/C(=C/c2ccco2)SC1=S)Nc1ccc(C(=O)O)c(O)c1 | 30.6 µM |
| Cc1cc(C)cc(N2C(=O)NC(=O)/C(=C/c3cccn3-c3ccc(Cl)cc3)C2=O)c1 | > 38 µM (inactive) |
| Cc1ccc(-c2cc(C(=O)O)c3cc(Br)ccc3n2)o1 | > 38 µM (inactive) |
| CCOC(=O)NNc1ccc2nonc2c1[N+](=O)[O-] | > 38 µM (inactive) |
| CC(=O)Nc1ccc(S(=O)(=O)NNC(=O)C(=O)NNc2ccccn2)cc1 | 0.621 µM |

| SMILES | AC50 |
| --- | --- |
| CC(C)CN1CCN(Cc2cccc3ncccc23)CC1CCO (stereo unspecified) | > 38 µM (inactive) |
| COc1ccc2c(c1)NP(=S)(Oc1ccccc1)N2 (stereo unspecified) | 12.8 µM |
| Cc1cc(=O)[nH]c(SCc2nc3ccc([N+](=O)[O-])cc3[nH]2)n1 | 16.6 µM |
| O=C(Nc1ccc(S(=O)(=O)Nc2nccs2)cc1)c1ccc(N2C(=O)c3ccccc3C2=O)cc1 | > 38 µM (inactive) |
| CC1CC(=O)c2c(cc3c(-c4c(O)cc(O)c5c(O)c6c(cc45)OC(C)CC6=O)c(O)cc(O)c3c2O)O1 (stereo unspecified) | 2.07 µM |
| C/C(=N/Nc1ccc(C(=O)O)cc1)c1ccc(O)c(O)c1O | 11.1 µM |
| NC(=S)N/N=C/c1cccc(O)c1O | 21.2 µM |
| COc1ccccc1OCC(=O)NNC(=O)c1cnccn1 | 35.3 µM |
| Cn1c(=O)c2[nH]c(-c3ccccc3)c(O)c2n(C)c1=O | 0.895 µM |
| Cn1c(=O)c(Nc2ccc(Cl)cc2)c2c3c(cccc31)C(=O)c1ccccc1-2 | 1.63 µM |
| CCOC(=O)/C=c1\s/c(=C\c2ccc3cc(OC)ccc3c2)c(=O)n1CC(=O)NCc1ccc2c(c1)OCO2 | > 38 µM (inactive) |
| O=C(O)c1cc(-c2ccco2)nc2cc3ccccc3cc12 | > 38 µM (inactive) |
| COc1ccc2cc(/C=C3\SC(=S)NC3=O)c(N3CCOCC3)nc2c1 | 24.1 µM |
| CC1(OC(=O)c2ccc(Cl)nc2)C(=O)C=C2C=C(c3ccc(C#N)cc3)OC=C2C1=O (stereo unspecified) | 20 µM |
| O=C(/C=C/c1ccc(O)c(O)c1)OC1C(O)CC(OC(=O)/C=C/c2ccc(O)c(O)c2)(C(=O)O)CC1O (stereo unspecified) | 15.9 µM |
| Cc1ccc(C2C(C(=O)c3cccs3)=C(O)C(=O)N2c2nnc(C)s2)cc1 (stereo unspecified) | 2.43 µM |
| CCCCN(C(=O)C1=COCCO1)c1c(N)n(Cc2ccccc2)c(=O)[nH]c1=O | > 38 µM (inactive) |
| O=[N+]([O-])c1ccc(NCc2ccccc2)c2nonc12 | 0.744 µM |
| O=C(NNc1ncnc2c1cnn2-c1ccc(F)cc1)c1ccco1 | 15.9 µM |
| Cc1cc(C)c2c3c(sc2n1)C(c1ccccc1)C(C#N)=C(N)O3 (stereo unspecified) | > 38 µM (inactive) |
| COc1ccccc1-n1c(C)nc2cc(C(=O)NCc3ccc4c(c3)OCO4)ccc21 | > 38 µM (inactive) |
| CC(C)N1CCc2c(sc(NC(=O)c3ccc(S(=O)(=O)N4CCCCC4C)cc3)c2C(N)=O)C1 (stereo unspecified) | > 38 µM (inactive) |
| N#CC(C#N)=NNc1ccc(S(N)(=O)=O)cc1 | 7.56 µM |
| CCn1c(C)c(C(C)=O)c(N2CCN(c3ccccc3)CC2)nc1=S | > 38 µM (inactive) |
| O=C(O)c1cc(O)c2c(c1)[C@@H]([C@H]1c3cc(C(=O)O)cc(O)c3C(=O)c3c(O[C@@H]4O[C@H](CO)[C@@H](O)[C@H](O)[C@H]4O)cccc31)c1cccc(OC3O[C@H](CO)[C@@H](O)[C@H](O)[C@H]3O)c1C2=O (stereo partly specified) | 1.52 µM |
| CCCCn1c(O)c(N=Nc2ccccn2)c2ccccc21 | 24.2 µM |

| SMILES | AC50 |
| --- | --- |
| CCN(CC)C(=O)Cn1c(=O)c2ccccc2n2c(=S)sc(-c3cccc(C)c3)c12 | 17.2 µM |
| CN1C(=O)/C(=C/c2cn(CC(=O)N3CCCCC3)c3ccccc23)c2ccccc21 | > 38 µM (inactive) |
| CC1(C)CC2(CC(c3ccccc3F)c3ccc(O)c(O)c3O2)NC(=S)N1 (stereo unspecified) | 0.638 µM |
| COc1ccc2cc(N=Cc3nc(-c4ccc(C)cc4)oc3O)cnc2c1 | > 38 µM (inactive) |
| COc1cc(/C=C2/C(=O)NN(c3ccc(Cl)c(Cl)c3)C2=O)cc([N+](=O)[O-])c1O | 31.6 µM |
| COc1cccc(OCC(=O)NNC(=O)c2cnccn2)c1 | 0.315 µM |
| CC(C)(C)C1CC=C2C(C#N)=C(N)C(C#N)(C#N)C(c3cccs3)C2C1 (stereo unspecified) | > 38 µM (inactive) |
| CN(C)c1ccc(/C=N/NC(=O)c2cnc3ccccc3c2)cc1 | 31.7 µM |
| CCOC(=O)C1CCN(c2nc(N)c3c(N)nc(SCC(=O)O)cc3c2C#N)CC1 | 20.1 µM |
| CC1C(=O)NN=C1C(=O)N/N=C\c1ccc(O)cc1O (stereo unspecified) | 10.2 µM |
| CCOc1cc(/C=C2\C(=O)N(c3cccc(C(=O)O)c3)N=C2C(F)(F)F)ccc1OCC(=O)Nc1ccccc1OC | 8.68 µM |
| CCc1ccc[n+](-c2[nH]c(=O)sc2/C=N/NC([S-])=Nc2ccccc2)c1 | 4.63 µM |
| CCOC(=O)c1c(NS(=O)(=O)c2ccccc2)n(CCCOC)c2nc3ccccc3nc12 | > 38 µM (inactive) |
| CN1CCN(c2nc(-c3ccccc3)nc(-c3ccccc3)c2C#N)CC1 | > 38 µM (inactive) |
| CN(C)[C@@H]1C(=O)C(C(N)=O)=C(O)[C@@]2(O)C(=O)C3=C(O)c4c(O)cccc4[C@@](C)(O)[C@H]3[C@H](O)[C@@H]12 | 12 µM |
| Cc1ccc(S(=O)(=O)N/N=C/c2ccc(O)c(O)c2)cc1[N+](=O)[O-] | 27 µM |
| COc1cc(CCC(=O)Nc2ccc(Cl)c(C(F)(F)F)c2)cc(OC)c1OC | > 38 µM (inactive) |
| O=[As](O)(O)c1ccc(N=Nc2ccc(O)cc2)cc1 | 37.5 µM |
| CCn1c(CSc2nnc3ccccn23)nc2cc(C(=O)O)ccc21 | 33.9 µM |
| Cc1nnc(N2C(=O)C(O)=C(C(=O)c3ccco3)C2c2ccc(C(C)C)cc2)s1 (stereo unspecified) | 37.2 µM |
| O=C(CN1C(=O)/C(=C/c2cccc(Br)c2)SC1=S)NC1=NCCS1 | > 38 µM (inactive) |
| COc1ccccc1CN1CC(C(=O)NCCN(C)CCc2ccccc2)CCC1=O (stereo unspecified) | > 38 µM (inactive) |
| O=C1c2cccc3c(Cl)ccc(c23)C(=O)N1O | 26.2 µM |
